How the values were obtained:
[1] = biological target: isoleucine-tRNA synthase enzyme (Escherichia coli, UniProt P00956); settings: affects the peptide synthesis of pathogen bacteria; cited from earlier work
[2] = both for humans and animals; cited from earlier work
[3] = test system: Bacillus subtilis ATCC 6633; assay: agar diffusion microbial method; type: cell-based; settings: beef-extract-peptone-glucose agar, pH 6.5, Bacillus subtilis ATCC 6633
Protocol: The antibacterial activity of the pseudomonic acid antibiotic complex is determined by agar diffusion microbial method. The medium is a beef-extract-peptone-glucose-containing agar, its pH is 6.5 and the test organism is Bacillus subtilis ATCC 6633.

isoleucine-tRNA synthase enzyme, sequence (P00956 whole entry): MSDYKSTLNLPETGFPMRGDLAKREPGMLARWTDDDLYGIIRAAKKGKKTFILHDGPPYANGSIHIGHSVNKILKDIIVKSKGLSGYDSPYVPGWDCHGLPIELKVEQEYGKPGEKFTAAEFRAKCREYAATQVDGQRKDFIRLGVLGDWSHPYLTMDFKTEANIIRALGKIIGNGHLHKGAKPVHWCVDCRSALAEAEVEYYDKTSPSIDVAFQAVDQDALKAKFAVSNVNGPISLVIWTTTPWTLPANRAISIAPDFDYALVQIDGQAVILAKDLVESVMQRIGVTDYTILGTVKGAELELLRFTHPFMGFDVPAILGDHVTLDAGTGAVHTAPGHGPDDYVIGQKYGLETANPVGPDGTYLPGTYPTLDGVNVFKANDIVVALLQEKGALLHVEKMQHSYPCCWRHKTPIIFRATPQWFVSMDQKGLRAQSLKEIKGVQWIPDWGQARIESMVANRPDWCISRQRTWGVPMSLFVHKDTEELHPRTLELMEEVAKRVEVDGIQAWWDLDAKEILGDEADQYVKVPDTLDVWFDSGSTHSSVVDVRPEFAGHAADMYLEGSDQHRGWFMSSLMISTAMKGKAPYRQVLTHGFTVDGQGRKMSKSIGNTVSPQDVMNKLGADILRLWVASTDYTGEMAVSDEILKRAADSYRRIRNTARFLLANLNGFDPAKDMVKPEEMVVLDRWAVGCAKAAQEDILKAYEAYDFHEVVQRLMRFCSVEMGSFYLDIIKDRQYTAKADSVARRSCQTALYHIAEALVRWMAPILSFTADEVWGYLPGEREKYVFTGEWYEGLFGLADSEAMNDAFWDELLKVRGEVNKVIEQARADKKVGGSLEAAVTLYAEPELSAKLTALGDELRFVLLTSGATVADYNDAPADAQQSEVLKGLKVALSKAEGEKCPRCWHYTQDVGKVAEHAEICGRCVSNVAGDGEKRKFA

Structure (SMILES)	inhibition of isoleucine-tRNA synthase enzyme [1]	toxicity [2]	specific activity against the test-microorganism relating to the component A [3]
C/C(=C\C(=O)OCCCCCCCCC(=O)O)CC1OC[C@H](C[C@@H]2O[C@H]2[C@@H](C)[C@H](C)O)[C@@H](O)[C@H]1O (stereo partly drawn) [Pseudomonic acid A, 9-{4[5S(2S,3S-epoxy-5S-hydroxy-4S-methylhexyl)-3R,4R-dihydroxy-tetrahydropyran-2S-yl]-3-methylbut-2(E)-enoyloxy}nonanoic acid]	inhibiting	very low toxicity	–
C/C(=C\C(=O)OCCCCCCCCC(=O)O)CC1OC[C@](O)(C[C@@H]2O[C@H]2[C@@H](C)[C@H](C)O)[C@@H](O)[C@H]1O (stereo partly drawn) [component B, pseudomonic acid B]	–	–	considerably weaker

From patent US7078223B2, “Process for the preparation of pseudomonic acid a antibiotic by microbiological method” (TEVA Gyógyszergyár Zártkörüen Müködö Részvénytársaság, priority 1999, dated 2006)
